Test results taken from US20230416256A1, “SMALL MOLECULE INHIBITORS OF NF-kB INDUCING KINASE” (Janssen Pharmaceutica NV, priority 2020, published 2023).
Where two headings read alike, the source gives them in different places.

Experiments:
[1] = system: p-IKKα levels in L363 (NIK translocated multiple myeloma) cells; assay: Effect of compounds on p-IKKα levels in L363 cells (AlphaLISA SureFire Ultra); type: cell-based, human; details: Homo sapiens, 10 μM MG132, 6 h, average of values obtained, read-out: Assay 2 IC50
Description: Effect of Compounds on p-IKKα Levels in L363 (NIK Translocated Multiple Myeloma) Cells
All compounds tested were dissolved and serially diluted in DMSO, 1:3 dilution for 11 points in an Echo compatible plate. 100% DMSO was added to columns 12 and 24 of the plate to serve as high and low signal controls. This compound plate was used to spot 20 nL of compound or DMSO into a Greiner 384 well TC plate (781080). The final DMSO concentration was 0.3% (v/v) in cell assays. Human L363 cells (ATCC) were cultured in RPMI1640 medium supplemented with GlutaMax, non-essential amino acids, sodium pyruvate and 10% fetal bovine serum. Cells were routinely maintained at densities of […]-2×10^6 cells per mL at 37° C. in a humidified 5% CO2 atmosphere incubator. Cells were passaged twice a week splitting back to obtain the low density. The day before the assay, cells were washed twice in HBSS (Hank's Balanced Salt Solution), resuspended in Dulbecco's Modified Eagle Medium (DMEM)+0.5% IgG and protease free BSA (Jackson Immuno Research Laboratories), +/−250 ng/ml recombinant human B-cell activating factor (BAFF/BLyS/TNFSF13B) and incubated overnight at 37° C. in a humidified 5% CO2 atmosphere (bulk stimulation with or without BAFF). The next day, the cell concentration was adjusted to 1×10^7 cells/ml in DMEM+/−250 ng/ml BAFF+/10 μM MG132 and plated at […] into compound or DMSO spotted 384 well TC plates. Seeded cells were incubated at 37° C. in a humidified 5% CO2 atmosphere for 6 h. After 6 h, the plates were removed from the incubator and cell lysis was achieved by the addition of 2.5 μl 5×lysis buffer containing protease and phosphatase inhibitors, followed by shaking on a plate shaker at room temperature for 15 min. At the end of this incubation, lysed cells were sequentially treated and incubated with acceptor and donor bead mixes according to the manufacturer's protocol for a 1 plate/2-incubation suspension cell assay (AlphaLISA SureFire Ultra p-IKKa (Ser 176/180) Assay Kit (Perkin Elmer). Plates were read using an EnVision Multilabel Plate Reader (Perkin Elmer). Within an experiment, a concentration response curve for each compound was run in duplicate. The signal obtained in the test wells was normalized using high signal (BAFF stimulated cells, DMSO, MG132) and low signal (unstimulated cells, DMSO) controls. To determine the IC50, a sigmoidal curve was fitted to the plot of % inhibition versus Log10 compound concentration.

[2] = target: recombinant human NF-kappaB-inducing kinase (NIK/MAP3K14) (Homo sapiens, UniProt Q99558); assay: Inhibition of auto-phosphorylation of recombinant human NIK/MAP3K14 activity (AlphaScreen); type: biochemical; details: GST-tagged NIK/MAP3K14 1 nM, 5 μM ATP, 2 h at 25° C.; average of values obtained
Sequence of recombinant human NF-kappaB-inducing kinase (NIK/MAP3K14) (Q99558 whole entry): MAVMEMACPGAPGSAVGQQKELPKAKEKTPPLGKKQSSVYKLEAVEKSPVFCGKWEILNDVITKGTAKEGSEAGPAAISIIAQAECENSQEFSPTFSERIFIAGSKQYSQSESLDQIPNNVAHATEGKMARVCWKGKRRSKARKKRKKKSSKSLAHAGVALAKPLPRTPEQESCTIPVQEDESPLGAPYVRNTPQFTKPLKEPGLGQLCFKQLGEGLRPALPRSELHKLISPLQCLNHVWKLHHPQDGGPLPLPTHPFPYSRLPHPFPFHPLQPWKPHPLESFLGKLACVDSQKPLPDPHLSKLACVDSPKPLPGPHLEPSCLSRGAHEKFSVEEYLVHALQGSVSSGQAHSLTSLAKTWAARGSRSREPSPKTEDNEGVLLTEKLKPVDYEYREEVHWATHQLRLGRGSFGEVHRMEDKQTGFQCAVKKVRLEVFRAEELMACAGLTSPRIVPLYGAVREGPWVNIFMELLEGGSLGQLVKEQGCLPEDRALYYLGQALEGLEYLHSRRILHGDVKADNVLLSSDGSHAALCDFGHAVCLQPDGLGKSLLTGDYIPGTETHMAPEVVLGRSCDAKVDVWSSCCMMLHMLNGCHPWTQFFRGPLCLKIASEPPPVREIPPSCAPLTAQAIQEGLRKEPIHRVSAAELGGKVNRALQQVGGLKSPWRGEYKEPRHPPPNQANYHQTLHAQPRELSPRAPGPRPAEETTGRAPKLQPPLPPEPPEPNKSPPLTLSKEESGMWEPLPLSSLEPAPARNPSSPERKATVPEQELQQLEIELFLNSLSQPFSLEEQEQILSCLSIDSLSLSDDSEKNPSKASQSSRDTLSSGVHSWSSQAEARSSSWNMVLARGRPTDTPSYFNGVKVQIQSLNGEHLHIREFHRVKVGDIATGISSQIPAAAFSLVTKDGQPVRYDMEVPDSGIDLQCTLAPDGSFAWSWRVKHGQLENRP
Description: Inhibition of Auto-Phosphorylation of Recombinant Human NF-kappaB-Inducing Kinase (NIK/MAP3K14) Activity (AlphaScreen®)
NIK/MAP3K14 auto-phosphorylation activity was measured using the AlphaScreen® (αscreen) format (Perkin Elmer). All compounds tested were dissolved in dimethyl sulfoxide (DMSO) and further dilutions were made in assay buffer. The final DMSO concentration was 0.7% (v/v) in assays. The assay buffer was 50 mM Tris pH 7.5 containing 1 mM EGTA (ethylene glycol tetraacetic acid), 1 mM DTT (dithiothreitol), 0.1 mM Na3VO4, 5 mM MgCl2, and 0.01% Tween® 20. The assays were carried out in 384 well Proxiplates (Perkin Elmer). The incubations consisted of the compound, 5 μM Adenosine-5′-triphosphate (ATP), and 1 nM NIK/MAP3K14. Incubations were initiated by the addition of GST-tagged NIK/MAP3K14 enzyme, carried out for 2 h at 25° C. and terminated by addition of stop buffer containing anti-phospho-IKK Ser176/180 antibody. Protein A Acceptor and Glutathione-Donor beads were added before reading using an EnVision Multilabel Plate Reader (Perkin Elmer). The signal obtained in the wells was normalized using high (full enzyme activity, 0.7% DMSO) and low controls (no enzyme activity, 0.7% DMSO, no ATP). IC50's were determined by fitting a sigmoidal curve to % inhibition of control versus Log10 compound concentration.

[3] = L-363, 6 h, 250 ng/ml BAFF stimulated
[4] = L-363, 250 ng/ml BAFF stimulated

Row | Structure (SMILES) | IC50 [1, 3] [nM] | IC50 [2] [nM] | IC50 [1, 4] [nM]
1 | C[C@@](O)(c1cccc(-c2csc(-c3c[nH]c4ncccc34)n2)c1)c1ccccn1 (single isomer, unassigned) [Example 60] | > 500 | > 500 | –
2 | C[C@](O)(c1cccc(-c2csc(-c3c[nH]c4ncccc34)n2)c1)c1ccccn1 (single isomer, unassigned) [Example 61] | > 500 | > 500 | –
3 | C[C@](O)(c1cccc(-c2csc(-c3c[nH]c4ncccc34)n2)c1)c1nccs1 (single isomer, unassigned) [Example 64] | > 500 | > 500 | –
4 | C[C@@](O)(c1cccc(-c2csc(-c3c[nH]c4ncccc34)n2)c1)c1nccs1 (single isomer, unassigned) [Example 65] | > 500 | ≤ 100 | –
5 | C[C@@](O)(c1cccc(-c2csc(-c3c[nH]c4nccnc34)n2)c1)c1ncc[nH]1 (single isomer, unassigned) [Example 77] | > 500 | > 500 | –
6 | C[C@](O)(c1cccc(-c2csc(-c3c[nH]c4nccnc34)n2)c1)c1ncc[nH]1 (single isomer, unassigned) [Example 78] | > 500 | > 500 | –
7 | Cn1ccnc1[C@@](C)(O)c1cccc(-c2csc(-c3c[nH]c4ncccc34)n2)c1 (single isomer, unassigned) [Example 79] | > 500 | > 500 | –
8 | C[C@@](O)(c1cccc(-c2csc(-c3c[nH]c4ncccc34)n2)c1)c1ncc[nH]1 (single isomer, unassigned) [Example 80] | > 500 | > 500 | –
9 | O=C1Nc2cccnc2[C@]1(O)c1cccc(-c2csc(-c3c[nH]c4ncccc34)n2)c1 (single isomer, unassigned) [Example 89] | – | > 500 | > 500
10 | O=C1Nc2cccnc2[C@@]1(O)c1cccc(-c2csc(-c3c[nH]c4ncccc34)n2)c1 (single isomer, unassigned) [Example 90] | – | > 500 | > 500
11 | CN1CC[C@@](O)(c2cccc(-c3nc(-c4c[nH]c5ncccc45)sc3F)c2)C1=O (single isomer, unassigned) [Example 99] | – | ≤ 100 | > 500
12 | O[C@@H]1C[C@@](O)(c2cccc(-c3csc(-c4c[nH]c5ncccc45)n3)c2)c2ncccc21 (single isomer, unassigned) [Example 101] | > 500 | 100 to 500 | –
13 | O[C@H]1C[C@](O)(c2cccc(-c3csc(-c4c[nH]c5ncccc45)n3)c2)c2ncccc21 (single isomer, unassigned) [Example 102] | > 500 | > 500 | –
14 | O[C@H]1C[C@@](O)(c2cccc(-c3csc(-c4c[nH]c5ncccc45)n3)c2)c2ncccc21 (single isomer, unassigned) [Example 103] | > 500 | > 500 | –
15 | O[C@@H]1C[C@](O)(c2cccc(-c3csc(-c4c[nH]c5ncccc45)n3)c2)c2ncccc21 (single isomer, unassigned) [Example 104] | > 500 | > 500 | –
16 | C[C@]1(O)C[C@](O)(c2cccc(-c3csc(-c4c[nH]c5ncccc45)n3)c2)c2ncccc21 (single isomer, unassigned) [Example 105] | > 500 | > 500 | –

Row | Structure (SMILES) | IC50 [1, 3] [nM] | IC50 [2] [nM] | IC50 [1, 4] [nM]
17 | C[C@@]1(O)C[C@](O)(c2cccc(-c3csc(-c4c[nH]c5ncccc45)n3)c2)c2ncccc21 (single isomer, unassigned) [Example 107] | > 500 | > 500 | –
18 | C[C@]1(O)C[C@@](O)(c2cccc(-c3csc(-c4c[nH]c5ncccc45)n3)c2)c2ncccc21 (single isomer, unassigned) [Example 108] | > 500 | 100 to 500 | –
19 | CN1CC[C@@](O)(c2cccc(-n3ncc(-c4c[nH]c5ncccc45)n3)c2)C1=O (single isomer, unassigned) [Example 109] | – | ≤ 100 | > 500
20 | CN1CC[C@@](O)(c2cccc(-c3csc(-n4ccc5ncccc54)n3)c2)C1=O (single isomer, unassigned) [Example 111] | – | 100 to 500 | > 500
21 | CN1CC[C@@](O)(c2cccc(-n3cnc(-c4c[nH]c5ncccc45)n3)c2)C1=O (single isomer, unassigned) [Example 121] | – | ≤ 100 | > 500
22 | CN1CC[C@@](O)(c2cccc(-n3ccc(-c4c[nH]c5ncccc45)n3)c2)C1=O (single isomer, unassigned) [Example 122] | – | ≤ 100 | > 500
23 | CN1CC[C@@](O)(c2cccc(-n3cnc(-c4c[nH]c5ncccc45)c3)c2)C1=O (single isomer, unassigned) [Example 124] | – | > 500 | > 500
24 | Cc1noc2c1CC[C@@]2(O)c1cccc(-c2csc(-c3c[nH]c4ncccc34)n2)c1 (single isomer, unassigned) [Example 126] | > 500 | ≤ 100 | –
25 | Cc1cnc2[nH]cc(-c3nc(-c4cccc([C@]5(O)CCN(C)C5=O)c4)cs3)c2c1 [Example 7, (R)-3-Hydroxy-1-methyl-3-(3-(2-(5-methyl-1H-pyrrolo[2,3-b]pyridin-3-yl)thiazol-4-yl)phenyl)pyrrolidin-2-one] | – | ≤ 100 | 100 to 500
26 | CN1CC[C@@](O)(c2cccc(-c3nc(-c4c[nH]c5ncccc45)cs3)c2)C1=O [Example 8, (R)-3-(3-(4-(1H-Pyrrolo[2,3-b]pyridin-3-yl)thiazol-2-yl)phenyl)-3-hydroxy-1-methylpyrrolidin-2-one] | – | ≤ 100 | > 500
27 | CN1CC[C@@](O)(c2cccc(-c3ncc(-c4c[nH]c5ncccc45)s3)c2)C1=O [Example 9, (R)-3-(3-(5-(1H-Pyrrolo[2,3-b]pyridin-3-yl)thiazol-2-yl)phenyl)-3-hydroxy-1-methylpyrrolidin-2-one] | – | 100 to 500 | > 500
28 | O[C@@]1(c2cccc(-c3csc(-c4c[nH]c5ncccc45)n3)c2)CCn2ccnc21 [Example 10, (R)-7-(3-(2-(1H-Pyrrolo[2,3-b]pyridin-3-yl)thiazol-4-yl)phenyl)-6,7-dihydro-5H-pyrrolo[1,2-a]imidazol-7-ol] | ≤ 100 | ≤ 100 | –
29 | O[C@@]1(c2cccc(-c3nc(-c4c[nH]c5nccnc45)cs3)c2)CCn2ccnc21 [Example 11, (R)-7-(3-(4-(5H-Pyrrolo[2,3-b]pyrazin-7-yl)thiazol-2-yl)phenyl)-6,7-dihydro-5H-pyrrolo[1,2-a]imidazol-7-ol] | ≤ 100 | ≤ 100 | –
30 | O[C@]1(c2cccc(-c3nc(-c4c[nH]c5nccnc45)cs3)c2)CCn2ccnc21 [Example 12, (S)-7-(3-(4-(5H-Pyrrolo[2,3-b]pyrazin-7-yl)thiazol-2-yl)phenyl)-6,7-dihydro-5H-pyrrolo[1,2-a]imidazol-7-ol] | > 500 | 100 to 500 | –
31 | O[C@@]1(c2cccc(-c3csc(-c4c[nH]c5nccnc45)n3)c2)C=Cn2ccnc21 [Example 13, (R)-7-(3-(2-(5H-Pyrrolo[2,3-b]pyrazin-7-yl)thiazol-4-yl)phenyl)-7H-pyrrolo[1,2-a]imidazol-7-ol] | > 500 | ≤ 100 | –
